Source: patent publication US20240327351A1, “AMIDE AND ETHER SUBSTITUTED N-(1H-INDOL-7-YL)BENZENESULFONAMIDES AND USES THEREOF” (TRIANA BIOMEDICINES, INC., priority 2021, published 2024)

What was measured:
DCAF15/RBM39 = DCAF15/RBM39 (Homo sapiens, UniProt Q14498+Q66K64); test: AlphaLISA compound-induced DCAF15-RBM39 ternary complex formation; format: binding; conditions: His-tagged DCAF15 complex and biotin-carrying RBM39
Summary of the method: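 Compounds, serially diluted 3-fold from 2 mM DMSO stocks, were incubated 1 h at room temperature with His-tagged DCAF15 complex and biotinylated RBM39 (mixture at 408 nM each, 2.04×). The buffer was 50 mM HEPES pH 7.5, 100 mM NaCl, 2 mM MgCl2, 2 mM TCEP. Ni-chelate acceptor and streptavidin donor beads were added sequentially (1–2 h each), and the AlphaLISA signal was titrated.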

RBM39 = target: T1, RBM39 (Homo sapiens, UniProt Q14498+Q66K64); test: Western blot assay for degradation of RBM39 in HCT116 cells; format: cell-based; conditions: HCT-116, numeric values
T1 construct: endogenous in cells; host or cells: HCT116
Experimental: HCT116 cells were used with passage numbers ranging from 13 to 25. Cells were seeded in 12-well plated at a density of 1 million cells per well in 1 mL cell culture medium containing McCoy's 5A medium (Cat. #16600082, ThermoFisher, Waltham, MA), 10% Fetal Bovine Serum (Cat. #26140, ThermoFisher, Waltham, MA) and 1% Pen-Strep (Cat. #. 15070063, ThermoFisher, Waltham, MA) and incubated overnight. The next morning, compounds were serially diluted (1:3, 9 points) in the medium separately and were prepared 2× the final assay concentration. Subsequently, 1.0 mL medium containing DMSO or the appropriate concentration of each compound was added to respective wells. The final DMSO concentration in each well was 0.1%. After 24 hour incubation with compounds, cell were harvested (approximately 90-100% confluency at the time of harvest). […] Lysates were then sonicated in a sonication bath (3 pulses of 10 sec each with 1 min incubation on ice between each pulse). Samples were then centrifuged for 20 min at 14,000 rpm for 20 min. Supernatants were then transferred to fresh microfuge tubes and stored frozen at −80° C. until use. Total protein quantitation in lysate samples was done using the BCA protein quantitation kit following the manufacturer's instructions. For polyacrylamide gel electrophoresis, each sample (15-30 […]), was diluted with Laemmli sample buffer (Cat. #. 1610747, BioRad, Hercules, CA) by adding 9 ul of lysate to 3 ul of sample buffer containing 10% β-mercaptoethanol. Samples were then denatured at 95° C. for 5 minutes in a heat block, centrifuged at 14,000 rpm for 5 min, and placed on ice. Subsequently, 12 ul of each sample was loaded on 4-20% Tris/Glycine gels and electrophoresed in 1×Tris/Glycine SDS buffer at 80 (constant) volts for 2 h. Resolved samples were then transferred from gels to PVDF membrane using the BioRad Turbo-transfer unit with the Turbo default program (Cat. #. 1704150EDU, BioRad, Hercules, CA). For immunoblotting, membranes were first blocked for 1 hour at room temperature using Odyssey Blocking Buffer (Cat. #: 927-60001, Li-cor, Lincoln, NE) with continuous rocking. Membrane was then incubated with primary antibodies, anti-RBM39 (Sigma Cat. #: HPA001591, St. Louis, MO) and anti-β-actin (Cell Signaling Cat. #3700S, Danvers, MA), diluted 1000 fold each, at 4° C. for overnight. […] Band intensity in images was quantified using the Image Studio Lite software (Version 5.2). Signal intensity for RBM-39 specific bands were normalized using the signal intensity for β-actin-specific band, and percent degradation was assessed by comparing RBM39 signal in compound-treated vs. DMSO-treated samples.

DCAF15 = DCAF15 (Homo sapiens, UniProt Q66K64); test: HTRF competition assay, binary interaction between compounds and DCAF15; format: binding; conditions: competition with Alexa Fluor 647 tracer, His-tagged DCAF15 complex
Summary of the method: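 Compounds, 3-fold serially diluted in DMSO, competed with an Alexa Fluor 647 tracer (612 nM, 2.04× stock) for His-tagged DCAF15 complex (32 nM, 4× stock) premixed 15 min with anti-6His-Eu cryptate. Buffer was 25 mM HEPES pH 7.5, 100 mM NaCl, 0.5 mM TCEP. After 1 h at RT, the 615/666 nm ratio gave titration curves.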

T1 sequence (Q66K64 whole entry): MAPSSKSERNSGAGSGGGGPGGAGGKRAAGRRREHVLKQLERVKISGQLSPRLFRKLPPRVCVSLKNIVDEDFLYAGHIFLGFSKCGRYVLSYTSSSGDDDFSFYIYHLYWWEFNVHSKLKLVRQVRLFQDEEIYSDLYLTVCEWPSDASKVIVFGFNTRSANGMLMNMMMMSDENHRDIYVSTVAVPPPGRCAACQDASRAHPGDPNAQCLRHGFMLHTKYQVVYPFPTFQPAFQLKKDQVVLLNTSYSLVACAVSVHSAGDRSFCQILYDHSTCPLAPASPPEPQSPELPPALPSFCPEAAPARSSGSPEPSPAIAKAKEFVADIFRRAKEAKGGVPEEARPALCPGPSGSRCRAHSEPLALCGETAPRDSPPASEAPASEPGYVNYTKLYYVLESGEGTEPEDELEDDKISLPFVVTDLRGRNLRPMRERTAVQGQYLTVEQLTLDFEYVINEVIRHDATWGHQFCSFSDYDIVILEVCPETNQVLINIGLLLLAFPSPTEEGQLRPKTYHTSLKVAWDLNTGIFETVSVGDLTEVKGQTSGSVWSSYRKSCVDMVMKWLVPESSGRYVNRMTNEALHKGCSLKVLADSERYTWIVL
T1 sequence (Q14498 2-530): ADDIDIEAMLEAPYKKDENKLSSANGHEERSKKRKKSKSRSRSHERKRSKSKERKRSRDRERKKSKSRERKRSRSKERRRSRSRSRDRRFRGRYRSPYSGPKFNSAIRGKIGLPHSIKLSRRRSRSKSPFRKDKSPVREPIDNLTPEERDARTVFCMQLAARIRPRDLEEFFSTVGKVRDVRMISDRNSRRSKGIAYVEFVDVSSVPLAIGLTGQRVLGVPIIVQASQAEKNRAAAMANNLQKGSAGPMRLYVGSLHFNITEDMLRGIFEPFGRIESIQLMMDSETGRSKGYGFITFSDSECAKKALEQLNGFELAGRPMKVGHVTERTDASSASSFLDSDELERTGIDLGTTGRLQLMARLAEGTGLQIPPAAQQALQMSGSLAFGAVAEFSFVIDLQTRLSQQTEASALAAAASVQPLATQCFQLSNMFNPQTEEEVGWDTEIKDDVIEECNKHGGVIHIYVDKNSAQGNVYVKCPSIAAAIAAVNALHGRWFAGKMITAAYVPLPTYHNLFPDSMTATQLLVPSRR
T1 sequence (Q16531 whole entry, further chain): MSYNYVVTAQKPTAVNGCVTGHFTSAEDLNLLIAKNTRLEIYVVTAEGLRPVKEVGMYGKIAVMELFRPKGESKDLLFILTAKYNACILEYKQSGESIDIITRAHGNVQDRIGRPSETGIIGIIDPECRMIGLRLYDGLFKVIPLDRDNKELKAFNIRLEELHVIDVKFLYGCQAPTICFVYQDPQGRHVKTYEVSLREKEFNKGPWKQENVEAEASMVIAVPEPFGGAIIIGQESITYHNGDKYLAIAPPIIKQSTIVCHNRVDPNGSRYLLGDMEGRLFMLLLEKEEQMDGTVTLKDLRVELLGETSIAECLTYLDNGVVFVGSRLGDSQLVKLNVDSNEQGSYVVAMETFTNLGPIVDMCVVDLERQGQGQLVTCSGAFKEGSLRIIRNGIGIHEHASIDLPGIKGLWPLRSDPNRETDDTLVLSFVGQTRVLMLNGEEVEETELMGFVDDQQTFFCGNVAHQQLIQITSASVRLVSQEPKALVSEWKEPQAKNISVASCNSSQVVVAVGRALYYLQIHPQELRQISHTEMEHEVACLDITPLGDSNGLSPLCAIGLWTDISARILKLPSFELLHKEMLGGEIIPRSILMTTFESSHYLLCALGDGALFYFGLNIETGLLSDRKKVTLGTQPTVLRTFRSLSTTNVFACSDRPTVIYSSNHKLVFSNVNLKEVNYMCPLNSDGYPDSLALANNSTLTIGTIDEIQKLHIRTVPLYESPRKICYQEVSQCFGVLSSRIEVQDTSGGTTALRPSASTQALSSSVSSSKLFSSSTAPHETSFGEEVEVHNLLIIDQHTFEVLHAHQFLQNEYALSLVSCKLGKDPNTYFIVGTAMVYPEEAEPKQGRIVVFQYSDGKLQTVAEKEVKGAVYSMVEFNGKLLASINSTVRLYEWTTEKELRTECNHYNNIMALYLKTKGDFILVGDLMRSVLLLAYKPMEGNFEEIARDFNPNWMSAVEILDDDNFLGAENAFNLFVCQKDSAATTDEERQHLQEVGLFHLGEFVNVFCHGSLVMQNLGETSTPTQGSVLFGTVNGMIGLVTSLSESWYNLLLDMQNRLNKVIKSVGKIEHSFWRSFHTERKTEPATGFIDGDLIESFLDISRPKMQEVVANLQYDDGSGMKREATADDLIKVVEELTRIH

EC50 (DCAF15/RBM39) [nM]	Dmax (RBM39) [%]	IC50 (DCAF15) [nM]	Structure (SMILES)
< 1000	94.8	1000 to 10000	O=C(NC1CC1)c1ccc(S(=O)(=O)Nc2ccc(Cl)c3c(Cl)c[nH]c23)cc1 [Compound 153]
1000 to 10000	100	1000 to 10000	CCS(=O)(=O)CCOc1ccc(S(=O)(=O)Nc2ccc(Cl)c3c(Cl)c[nH]c23)cc1 [Compound 71]
< 1000	100	1000 to 10000	O=C(c1cccc(S(=O)(=O)Nc2ccc(Cl)c3c(Cl)c[nH]c23)c1)N1CCOCC1 [Compound 218]
< 1000	97.6	> 100000	O=C(COc1ccc(S(=O)(=O)Nc2ccc(Cl)c3c(Cl)c[nH]c23)cc1)NC1CC1 [Compound 39]
